Source: publication PMC10076643, “Design, synthesis and anticancer activity studies of 3-(coumarin-3-yl)-acrolein derivatives: Evidenced by integrating network pharmacology and vitro assay” (Frontiers in Pharmacology, 2023)

Legend:
Type in all cases: cell-based, human
[1] = system: AKT phosphorylation in KB cells; assay: Western blot, pAKT/AKT; conditions: increased concentration (0.40, 0.80, 1.60 μM), 24 h
From the text: (§1) Based on the results of network pharmacology, the key proteins related to PI3K/AKT pathway were detected by Western blotting to explore the antitumor mechanism of compound 6e. […] Such an inconsistency might be due to a compensatory increase in PI3K level after the reduction of AKT phosphorylation level. Additionally, the active-caspase 3 protein, anti-apoptosis protein Bcl-2 and pro-apoptosis protein Bax were further analyzed. Caspase-3 normally exists in the cytoplasm as zymogen. During the early stage of apoptosis, caspase-3 (32 KD) is cleaved to the active 17-kD caspase-3 fragment, which is responsible for morphological and biochemical changes in apoptosis. Bcl-2 and Bax are the […] located on the mitochondrial membrane and capable of controlling the MMP (ΔΨm) and the activation of caspase cascade.
(§2) A total of 4 × 10^5 KB cells were seeded into 6-well and grown for overnight. Then the cells adherent to the wall were treated with compound 6e in different concentrations (0, 0.40, 0.80, 1.60 μM) for 24 h. After that, cells were collected, SDS lysate, 100X protease inhibitor and 50X phosphorylation inhibitor were added in a certain proportion to lyse the cells. The protein content was determined by BCA reagent (Beyotime, China) according to the standard curve. […]

KB cells [2] = assay: JC-1 mitochondrial membrane potential (MMP) assay; conditions: increasing concentration (0.5 IC50, IC50, 2 IC50), 48 h
From the text: According to the predicted results of network pharmacology, compound 6e might stimulate the oxidative stress response of cancer cells. Oxidative stress reflects an imbalance between excessive production of reactive free radical and deficits in antioxidant biosystem ([Zhong et al., 2018]). Mitochondria are the main reactors that produce reactive free radicals in cells, and MMP is a key indicator of mitochondrial activity. Excessive oxidative stress can cause a decrease in MMP, which leads to the damage of mitochondrial. It is well-known that mitochondrial damage is a major trigger for the induction of cell apoptosis and necrosis ([Kharroubi et al., 2017]; [Meng et al., 2021]). Therefore, JC-1 staining was used to investigate the effect of compound 6e on the MMP (ΔΨm) of KB cells. In normal cells, JC-1 can form aggregates in healthy mitochondria, emitting red fluorescence, while in apoptotic cells, JC-1 will stay in monomers that emit green fluorescence, implying a low value of ΔΨm. Therefore, mitochondrial depolarization is manifested by a decrease in the ratio of red to green fluorescence intensity.
MMP was determined using the JC-1 mitochondria staining Kit (Aladdin, China). […] On one hand, JC-1 red and green fluorescence intensities were measured with Varioskan™ LUX Multimode Microplate Reader (Thermo Fisher Scientific, America) under the […]. […]

KB cells [3] = assay: Transwell invasion assay (Matrigel); conditions: 2 IC50, 48 h
Method: Transwell invasion assay was carried out to evaluate the effect of compound 6e on KB cell invasion.
For invasion assay, the transwells (8 μm pore size, Corning Incorporated) were precoated with 40 μL Matrigel for 2 h at 37°C to achieve solidification. KB cells were harvested and resuspended in serum-free medium, treated with different concentrations of compound 6e (0.5 IC50, IC50, 2 IC50), and added into the upper wells of the transwell chamber at density of 1×10^5 cells/200 μL. Then 600 μL of RPMI-1640 containing 10% FBS was added into each lower chamber. After 48 h, the invaded cells in the lower champers were fixed with paraformaldehyde for 1 h and stained with crystal violet solution for 2 h. The non-invading cells in the upper chambers of the transwell plates were scraped away by cotton swabs. Next, the chambers were washed with PBS. The invaded cells were then imaged with the inverted fluorescence microscope (Leica DMi8, Germany) and counted with ImageJ software for three independent fields randomly.

Bax in KB cells = assay: Western blot, Bax; conditions: 0.40 μM, 24 h
From the text: as §1, §2

**Q.** For `O=CC=C(Cl)c1cc2ccc(OCc3ccccc3)cc2oc1=O` [Compound 6e, 3-(7-(Benzyloxy)-2-oxo-2H-chromen-3-yl)-3-chloroacrylaldehyde], which pAKT/AKT ratios [1] is on record?
**A.** remarkably decreased

**Q.** And the “JC-1 ratio (red to green fluorescence)” value (KB cells [2])?
**A.** significant decrease

**Q.** What about the “KB cell invasion reduced” value (KB cells [3]) of the same compound?
**A.** more than 64%

**Q.** And the “expression of Bax compared with the control group” value (Bax in KB cells)?
**A.** upregulated
